One block for each molecule: values may come before it.
How the values were obtained:
anti-NGF mAb NGF30 = assay: Competitive ELISA, anti-NGF mAb NGF30 binding to immobilized NGF (selectivity control); conditions: for NGF30 binding AVERAGE: binding to immobilized NGF, no cpd = 100%, mAb NGF30 50 nM, as described for FIG. 1A
Experimental: (§1) The effect of compounds I-B and LM-24 on the binding between NGF and p75 was tested in competitive ELISA assays, where the antagonists prevent soluble p75 from binding to immobilized NGF. The selectivity of antagonism was evaluated by lack of effect upon NGF-TrkA or lack of effect between NGF and anti-NGF monoclonal antibody (mAb) NGF30 interactions (FIG. 1A).
(§2) Competitive ELISAs were performed as described (Saragovi et al., 1998). The procedure immobilized 50 ng/well NGF, or pro-NGF (Alomone Labs, Israel) onto polystyrene 96-well microtest plates, with washing and blocking with binding buffer (BB; phosphate buffered saline containing 0.5% bovine serum albumin). The following primary reagents in BB were added: recombinant chimeric p75-Fc or recombinant chimeric TrkA-Fc (R&D), or anti-NGF mAb NGF30 (Saragovi et al., 1998); each at 50 nM. The competitors I-B and the other test compounds (or control LM-24) were added at the indicated concentrations, and the plates were incubated for 45 minutes. After washing 3× in BB, HRP-conjugated secondary reagents (Sigma) were added for 30 min (goat anti-human Fc for p75-Fc and for TrkA-Fc; and goat anti-rat Ab for NGF30 mAb), and then wells were washed 3× in BB and 1× in PBS. Peroxidase activity was determined colorimetrically using the substrate TMB One Solution (Promega). The reaction was stopped with 0.5 N H2SO4 and the plates were read at 450 nm (Benchmark Plus, Bio-Rad). Assays were repeated n>4 times, with replicates of 4 wells each assay. […] Wells with no NGF immobilized but with all other reagents added were treated as background (<15% of maximal signals) and standardized to 0% binding.

p75-Fc = molecular target: T1, p75-Fc (Homo sapiens, UniProt P08138); assay: Competitive ELISA, p75-Fc binding to immobilized NGF; conditions: for remaining activity at 30 µM: 0.75 h, binding to immobilized NGF, no cpd = 100%, p75-Fc 50 nM, as described for FIG. 1A (compounds 30 μM), below 100% indicates inhibition
T1 construct: purchased R&D
T1 sequence (P08138 29-250 limits assumed): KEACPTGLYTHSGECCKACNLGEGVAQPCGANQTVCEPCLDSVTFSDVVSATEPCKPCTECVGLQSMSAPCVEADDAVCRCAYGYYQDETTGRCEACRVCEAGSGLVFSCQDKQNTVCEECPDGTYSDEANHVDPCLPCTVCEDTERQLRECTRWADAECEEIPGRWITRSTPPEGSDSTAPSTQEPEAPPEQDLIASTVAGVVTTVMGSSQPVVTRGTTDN
Experimental: as §1
The compound LM-24 has been reported by others (Massa et al., 2006). Binding studies were carried out with all the compounds using I-B as reference.
as §2

TrkA-Fc = molecular target: T2, TrkA-Fc (Homo sapiens, UniProt P04629); assay: Competitive ELISA, TrkA-Fc binding to immobilized NGF (selectivity control); conditions: for TrkA-Fc binding AVERAGE: binding to immobilized NGF, no cpd = 100%, TrkA-Fc 50 nM, as described for FIG. 1A
T2 construct: purchased R&D
T2 sequence (P04629 33-423 limits assumed): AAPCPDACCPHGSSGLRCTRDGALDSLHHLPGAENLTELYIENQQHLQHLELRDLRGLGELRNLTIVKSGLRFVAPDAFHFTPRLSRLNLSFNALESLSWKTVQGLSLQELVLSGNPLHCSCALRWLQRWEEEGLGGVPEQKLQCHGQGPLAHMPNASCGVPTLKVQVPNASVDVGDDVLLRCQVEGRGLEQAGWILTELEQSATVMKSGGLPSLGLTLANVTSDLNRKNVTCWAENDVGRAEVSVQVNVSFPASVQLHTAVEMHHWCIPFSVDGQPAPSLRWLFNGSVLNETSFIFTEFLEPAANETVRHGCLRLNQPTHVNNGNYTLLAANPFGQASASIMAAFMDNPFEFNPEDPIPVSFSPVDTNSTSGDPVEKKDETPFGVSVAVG
Experimental: as §1, §2

[1] = system: retinal ganglion cells (RGCs); assay: Glaucoma (episcleral vein cauterization) model, quantification of surviving RGCs; format: in vivo; conditions: rat glaucoma, intravitreal injections days 14 and 21, endpoint day 42 (FIG. 2D)
Experimental: (§3) Wistar rats (female, 250-300 g; Charles River) were kept in a 12 hours dark-light cycle with food and water ad libitum. All animal manipulations were performed between 9 AM and 12 AM. Deep anesthesia was used during cauterization (induction of glaucoma), ON transection, fluorogold labeling, intraocular injection procedures, Optical Coherence Tomography measurements, and euthanasia (ketamine, xylazine, acepromazine injected intraperitoneally: 50/5/1 mg/kg, as per IACUC recommendations). For measuring IOP, light anesthesia was used (a gas mixture of Oxygen, 2% isofluorane mixture, at a rate of 2.5 liter/min, as per IACUC recommendations).
The episcleral vein cauterization (EVC) model of rat (Shi et al., 2007; Shi et al., 2008) was used. […]
(§4) For studies in the glaucoma animal model the injections were performed at days 14 and 21 after cauterization. […] Thus, in this paradigm there is pre-existing damage for 14 days before treatment (measured at ˜8% RGC death (Shi et al., 2007; Shi et al., 2008)); and the treatments require long-lived efficacy in the constant presence of retinal stress due to high IOP. […]
(§5) Quantification of labeled RGCs was performed as reported (Shi et al., 2007; Shi et al., 2008). […] Pictures for each freshly flat-mounted retina were taken using a Zeiss fluorescence microscope (Carl Zeiss Meditec, Jena, Germany), with 12 pictures/retina at 20× magnification. […]

[2] = system: retinal ganglion cells (RGCs); assay: ON axotomy model, quantification of surviving RGCs (fluorogold labeled); format: in vivo; conditions: rat ON axotomy, one intravitreal injection 3 μg, day 14; contralateral normal eye = 100%; control axotomy 10%
Experimental: as §3
The ON axotomy model in the rat (Bai et al., 2010a) was used. […]
as §4, §5

[3] = system: NGI (NFL-GCL-IPL) retinal layers; assay: ON axotomy model, retinal NGI thickness by FD-OCT; format: in vivo; conditions: rat ON axotomy, 3 μg intravitreal immediately after axotomy, days 11 and 14, versus untreated axotomy
Experimental: Antagonists of p75NTR prevented loss of retinal structure after ON axotomy. The relative in vivo efficacy for I-B and LM-24 was tested using the ON axotomy model. A quantitative non-invasive structural endpoint, FD-OCT, was performed in the same animal over time to measure the integrity of the neuronal layers. We quantified the axons and fibers of the RGCs that contribute to the thickness of the Nerve Fiber Layer (NFL), the Ganglion Cell Layer (GCL), and the Inner Plexiform Layer (IPL), herein termed NGI. Maintenance of NGI structure correlates with RGC health (Bai et al., 2010a).
Wistar rats (female, 250-300 g; Charles River) were kept in a 12 hours dark-light cycle with food and water ad libitum. All animal manipulations were performed between 9 AM and 12 AM. […]
FD-OCT is a non-invasive method that allows time-kinetic studies in the same animal. […] In each B-scan the thickness of the NFL-GCL-IPL (NGI) was measured at four adjacent points at a distance 1.5 mm from the ON head. […]
as §4

B104 cells = assay: Pro-NTF killing assay (MTT), B104 cells; format: cell-based; conditions: 50 nM, 72 hours, p<0.05
Experimental: (§6) The effect of I-B on the pro-apoptotic function of pro-NGF or pro-BDNF was tested in functional MTT assays measuring cell metabolism (FIG. 1B).
(§7) Cells (5,000 cells/well) were cultured in 96-well plates (Falcon, Lincoln Park, N.J.) in normal culture media (RPMI1640, Hepes, Glutamine, 5% serum). Wells were supplemented with NGF, BDNF, pro-NGF, or pro-BDNF (Alomone Labs) (50 nM final), in the presence or absence of I-B (20 μM final). Wells containing all culture conditions but no cells were used as blanks. The growth/survival profile of the cells was quantified using MTT (Sigma) 72 hours after plating. Optical density readings of MTT were done in a Benchmark Plus microplate Spectrophotometer (BioRad) at 595 nm with blanks subtracted.

nnr5 cells = assay: Pro-NTF killing assay (MTT), nnr5 cells; format: cell-based; conditions: 50 nM, 72 hours, p<0.05
Experimental: as §6, §7

[4] = competitive ELISA, FIG. 1A, compound at 30 μM

Molecule: Cn1c(=O)c2c(ncn2CC(=O)NCCCC(F)(F)F)n(C)c1=O [I-A, 2-(1,3-dimethyl-2,6-dioxo-2,3-dihydro-1H-purin-7(6H)-yl)-N-(4,4,4-trifluorobutyl)acetamide]
NGF30 binding AVERAGE (anti-NGF mAb NGF30): 86%
remaining activity at 30 µM (p75-Fc): 74%
TrkA-Fc binding AVERAGE (TrkA-Fc): 105%

Molecule: Cn1c(=O)c2c(ncn2CC(=O)NCCC(F)(F)F)n(C)c1=O [I-F, 2-(1,3-dimethyl-2,6-dioxo-2,3-dihydro-1H-purin-7(6H)-yl)-N-(3,3,3-trifluoropropyl)acetamide]
remaining activity at 30 µM (p75-Fc): 73%
TrkA-Fc binding AVERAGE (TrkA-Fc): 91%

Molecule: Cn1c(=O)c2c(ncn2CC(=O)N(C(=O)NC2CCCCC2)C2CCCCC2)n(C)c1=O [I-G]
remaining activity at 30 µM (p75-Fc): 62%
TrkA-Fc binding AVERAGE (TrkA-Fc): 99%

Molecule: CC(C)NC(=O)N(C(=O)Cc1c[nH]c2ccccc12)C(C)C [I-Q, 2-(1H-indol-3-yl)-N-isopropyl-N-(isopropylcarbamoyl)acetamide]
remaining activity at 30 µM (p75-Fc): 53%

Molecule: CN(C)CCCNC(=O)Cn1cnc2c1c(=O)n(C)c(=O)n2C [LM-24, reference compound]
prevention of RGC death [1]: significantly prevent the death of RGCs
RGCs surviving [2]: 21%
effect on mAb NGF30 binding to NGF (anti-NGF mAb NGF30; [4]): did not interfere
effect on NGF-p75NTR interaction (p75-Fc; [4]): antagonized NGF-p75NTR interactions selectively
effect on binding of TrkA to NGF (TrkA-Fc; [4]): did not interfere
preservation of NGI thickness (FD-OCT) [3]: very limited preservation of the NGI thickness

Molecule: Pro-NGF: precursor of nerve growth factor (Alomone Labs), pro-apoptotic p75 ligand
cell viability (MTT), growth factor alone (B104 cells): reduced the viability
cell viability (MTT), growth factor alone (nnr5 cells): reduced the viability

B1: pro-BDNF: precursor of brain derived neurotrophic factor (Alomone Labs), pro-apoptotic p75 ligand (protein, UniProt P23560 19-247, looked up)
pro-form: APMKEANIRGQGGLAYPGVRTHGTLESVNGPKAGSRGLTSLADTFEHVIEELLDEDQKVRPNEENNKDADLYTSRVMLSSQVPLEPPLLFLLEEYKNYLDAANMSMRVRRHSDPARRGELSVCDSISEWVTAADKKTAVDMSGGTVTVLEKVPVSKGQLKQYFYETKCNPMGYTKEGCRGIDKRHWNSQCRTTQSYVRALTMDSKKRIGWRFIRIDTSCVCTLTIKRGR
modifications: pro-form
notes: precursor of brain derived neurotrophic factor (Alomone Labs), pro-apoptotic p75 ligand
cell viability (MTT), growth factor alone (B104 cells): reduced the viability
cell viability (MTT), growth factor alone (nnr5 cells): reduced the viability

Further lines, results first:

remaining activity at 30 µM (p75-Fc): 59%
Molecule: CC(C)NC(=O)N(C(=O)CCc1c[nH]c2ccccc12)C(C)C [I-R, 3-(1H-indol-3-yl)-N-isopropyl-N-(isopropylcarbamoyl)propanamide]

remaining activity at 30 µM (p75-Fc): 56%
Molecule: Cc1ccc(NC(=O)N(C(=O)CCc2c[nH]c3ccccc23)c2ccc(C)cc2)cc1 [I-S, 3-(1H-indol-3-yl)-N-p-tolyl-N-(p-tolylcarbamoyl)propanamide]

NGF30 binding AVERAGE (anti-NGF mAb NGF30): 91%
remaining activity at 30 µM (p75-Fc): 69%
TrkA-Fc binding AVERAGE (TrkA-Fc): 116%
Molecule: Cn1c(=O)c2c(ncn2CC(=O)OCCCN)n(C)c1=O [II-D, 3′-Aminopropyl (1,3-dimethyl-2,6-dioxo-2,3-dihydro-1H-purin-7(6H)-yl)acetate]

NGF30 binding AVERAGE (anti-NGF mAb NGF30): 89%
remaining activity at 30 µM (p75-Fc): 56%
TrkA-Fc binding AVERAGE (TrkA-Fc): 94%
Molecule: Cn1c(=O)c2c(ncn2CC(=O)OCCCNC(=O)OCc2ccccc2)n(C)c1=O [II-E, 3′-(Benzyloxycarbonylamino)propyl (1,3-dimethyl-2,6-dioxo-2,3-dihydro-1H-purin-7(6H)-yl)acetate]

remaining activity at 30 µM (p75-Fc): 72%
TrkA-Fc binding AVERAGE (TrkA-Fc): 94%
Molecule: COC(=O)Cn1cnc2c1c(=O)n(C)c(=O)n2C [II-H]

remaining activity at 30 µM (p75-Fc): 83%
Molecule: CCCn1c(=O)c2c(ncn2CC(=O)OC)n(CCC)c1=O [II-N, Methyl 2-(2,6-dioxo-1,3-dipropyl-2,3-dihydro-1H-purin-7(6H)-yl)acetate]

From patent publication US9296691B2, “Inhibitors of p75 receptor and their uses” (Horacio Uri Saragovi, priority 2010, dated 2016)
